Data from patent US11903387B2 (priority 2016, dated 2024).
“And” between values parts separate entries of the source, which are not always exact repeats. Identical values can stand only once. Like-named read-outs stand apart in the source and are kept apart here.

Experiments:
[1] = test system: Pseudoperonospora cubensis; assay: Test 2: control effect against cucumber downy mildew; format: in vivo
Phytophthora infestans = assay: whole plant or invertebrate; format: in vivo
[2] = component (b) alone 0.4 ppm, average of three repeats
[3] = component (b) alone 2 ppm, average of three repeats
[4] = component (b) alone 10 ppm, average of three repeats

Q: How did the pest or weed control at 0.003 ppm ([1]; Pseudoperonospora cubensis, component (b) alone, 0.003 ppm, read-out: Test 2 Measured) turn out when Cc1ccc(-c2c(Cl)nc(C#N)n2S(=O)(=O)N(C)C)cc1 [Cyazofamid] was run?
A: 0%

Q: And the pest or weed control at 0.08 ppm ([1]; Pseudoperonospora cubensis, component (b) alone, 0.08 ppm, read-out: Test 2 Measured)?
A: 99%

Q: And the pest or weed control at 0.4 ppm ([1]; Pseudoperonospora cubensis, component (b) alone, 0.4 ppm, read-out: Test 2 Measured)?
A: 100%

Q: And the “Test 2 Measured preventive value” ([1]; component (b) alone 0.003 ppm, average of three repeats)?
A: 0

Q: What about the “Test 2 Measured preventive value” ([1]; component (b) alone 0.08 ppm, average of three repeats) of the same compound?
A: 99.5

Q: And the “Test 2 Measured preventive value” [1, 2]?
A: 100

Q: What about the “Test 2 Measured preventive value” ([1]; component (b) alone, 0.003 ppm) of the same compound?
A: 0

Q: What about the “Test 2 Measured preventive value” ([1]; component (b) alone, 0.08 ppm) of the same compound?
A: 99.5

Q: What about the “Test 2 Measured preventive value” ([1]; component (b) alone, 0.4 ppm) of the same compound?
A: 100

Q: What about the pest or weed control at 0.08 ppm (Phytophthora infestans; Phytophthora infestans, in Solanum lycopersicum, read-out: Test 1 Measured preventive value, component (b) alone 0.08 ppm, average of three repeats) of the same compound?
A: 46.7%

Q: And the pest or weed control at 0.4 ppm (Phytophthora infestans; Phytophthora infestans, in Solanum lycopersicum, read-out: Test 1 Measured preventive value, component (b) alone 0.4 ppm, average of three repeats)?
A: 95.5%

Q: And the pest or weed control at 2 ppm (Phytophthora infestans; Phytophthora infestans, in Solanum lycopersicum, read-out: Test 1 Measured preventive value, component (b) alone 2 ppm, average of three repeats)?
A: 100%

Q: What about the pest or weed control at 0.08 ppm (Phytophthora infestans; Phytophthora infestans, in Solanum lycopersicum, read-out: Test 1 Measured preventive value, component (b) alone, 0.08 ppm) of the same compound?
A: 46.7%

Q: And the pest or weed control at 0.4 ppm (Phytophthora infestans; Phytophthora infestans, in Solanum lycopersicum, read-out: Test 1 Measured preventive value, component (b) alone, 0.4 ppm)?
A: 95.5%

Q: And the pest or weed control at 2 ppm (Phytophthora infestans; Phytophthora infestans, in Solanum lycopersicum, read-out: Test 1 Measured preventive value, component (b) alone, 2 ppm)?
A: 100%

Q: What about the pest or weed control at 0.08 ppm (Phytophthora infestans; Phytophthora infestans, in Solanum lycopersicum, read-out: Test 1 Measured, component (b) alone, 0.08 ppm) of the same compound?
A: 32%

Q: And the pest or weed control at 0.4 ppm (Phytophthora infestans; Phytophthora infestans, in Solanum lycopersicum, read-out: Test 1 Measured, component (b) alone, 0.4 ppm)?
A: 96%

Q: What about the pest or weed control at 2 ppm (Phytophthora infestans; Phytophthora infestans, in Solanum lycopersicum, read-out: Test 1 Measured, component (b) alone, 2 ppm) of the same compound?
A: 100%

Q: Which results are given for Mancozeb?
A: Test 2 Measured ([1]; component (b) alone, 2 ppm): 33; Test 2 Measured ([1]; component (b) alone, 10 ppm): 100; Test 2 Measured preventive value ([1]; component (b) alone, 10 ppm): 99; Test 2 Measured ([1]; component (b) alone, 50 ppm): 100; Test 2 Measured preventive value ([1]; component (b) alone, 50 ppm): 100; Test 1 Measured (Phytophthora infestans; component (b) alone, 2 ppm): 21.8; Test 1 Measured preventive value (Phytophthora infestans; component (b) alone, 2 ppm): 11.7; Test 1 Measured (Phytophthora infestans; component (b) alone, 10 ppm): 80.5; Test 1 Measured preventive value (Phytophthora infestans; component (b) alone, 10 ppm): 84.2; Test 1 Measured (Phytophthora infestans; component (b) alone, 50 ppm): 100.0; Test 1 Measured preventive value (Phytophthora infestans; component (b) alone, 50 ppm): 100.0

Q: What does the source list for Cc1c(Br)c2ccc(F)cc2n1S(=O)(=O)c1ncn(S(=O)(=O)N(C)C)n1 [Amisulbrom]?
A: Test 2 Measured ([1]; component (b) alone, 0.4 ppm): 27.5; Test 2 Measured ([1]; component (b) alone, 2 ppm): 98.8; Test 2 Measured ([1]; component (b) alone, 10 ppm): 100; Test 1 Measured (Phytophthora infestans; component (b) alone, 0.4 ppm): 60; Test 1 Measured (Phytophthora infestans; component (b) alone, 2 ppm): 80; Test 1 Measured (Phytophthora infestans; component (b) alone, 10 ppm): 97

Q: How did the “Test 2 Measured preventive value” [1, 2] turn out when COC(=O)CC(NC(=O)[C@@H](NC(=O)OC(C)C)C(C)C)c1ccc(Cl)cc1 (stereo partly drawn) [Valifenalate] was run?
A: 0

Q: And the “Test 2 Measured preventive value” [1, 3]?
A: 57.5

Q: What about the “Test 2 Measured preventive value” [1, 4] of the same compound?
A: 93.5

Q: And the “Test 2 Measured” value ([1]; component (b) alone, 0.4 ppm)?
A: 4

Q: And the “Test 2 Measured preventive value” ([1]; component (b) alone, 0.4 ppm)?
A: 0

Q: What about the “Test 2 Measured” value ([1]; component (b) alone, 2 ppm) of the same compound?
A: 51.8

Q: What about the “Test 2 Measured preventive value” ([1]; component (b) alone, 2 ppm) of the same compound?
A: 57.5

Q: What about the “Test 2 Measured” value ([1]; component (b) alone, 10 ppm) of the same compound?
A: 93

Q: And the “Test 2 Measured preventive value” ([1]; component (b) alone, 10 ppm)?
A: 93.5

Q: What about the “Test 1 Measured preventive value” (Phytophthora infestans; [2]) of the same compound?
A: 20.0

Q: What about the “Test 1 Measured preventive value” (Phytophthora infestans; [3]) of the same compound?
A: 51.7

Q: And the “Test 1 Measured preventive value” (Phytophthora infestans; [4])?
A: 96.2

Q: And the “Test 1 Measured” value (Phytophthora infestans; component (b) alone, 0.4 ppm)?
A: 10.0

Q: What about the “Test 1 Measured preventive value” (Phytophthora infestans; component (b) alone, 0.4 ppm) of the same compound?
A: 20.0

Q: And the “Test 1 Measured” value (Phytophthora infestans; component (b) alone, 2 ppm)?
A: 45.2

Q: What about the “Test 1 Measured preventive value” (Phytophthora infestans; component (b) alone, 2 ppm) of the same compound?
A: 51.7

Q: And the “Test 1 Measured” value (Phytophthora infestans; component (b) alone, 10 ppm)?
A: 97.0

Q: And the “Test 1 Measured preventive value” (Phytophthora infestans; component (b) alone, 10 ppm)?
A: 96.2

Q: With COC(=O)NC(=S)Nc1ccccc1NC(=S)NC(=O)OC [Thiophanate-methyl] as the compound, how does the pest or weed control at 20 ppm ([1]; Pseudoperonospora cubensis, component (b) alone 20 ppm, read-out: Test 2 Measured) read?
A: 0%

Q: And the pest or weed control at 100 ppm ([1]; Pseudoperonospora cubensis, component (b) alone 100 ppm, read-out: Test 2 Measured)?
A: 0%

Q: What about the pest or weed control at 500 ppm ([1]; Pseudoperonospora cubensis, component (b) alone 500 ppm, read-out: Test 2 Measured) of the same compound?
A: 2.5%

Q: And the pest or weed control at 20 ppm (Phytophthora infestans; Phytophthora infestans, in Solanum lycopersicum, read-out: Test 1 Measured, component (b) alone 20 ppm)?
A: 0%

Q: And the pest or weed control at 500 ppm (Phytophthora infestans; Phytophthora infestans, in Solanum lycopersicum, read-out: Test 1 Measured, component (b) alone 500 ppm)?
A: 60%

Q: How did the pest or weed control at 8 ppm ([1]; Pseudoperonospora cubensis, component (b) alone 8 ppm, read-out: Test 2 Measured) turn out when CCCC1COC(Cn2cncn2)(c2ccc(Cl)cc2Cl)O1 (stereo not drawn) [Propiconazole] was run?
A: 0%

Q: What about the pest or weed control at 40 ppm ([1]; Pseudoperonospora cubensis, component (b) alone 40 ppm, read-out: Test 2 Measured) of the same compound?
A: 7.5%

Q: What about the pest or weed control at 200 ppm ([1]; Pseudoperonospora cubensis, component (b) alone 200 ppm, read-out: Test 2 Measured) of the same compound?
A: 57.5%

Q: What about the pest or weed control at 8 ppm (Phytophthora infestans; Phytophthora infestans, in Solanum lycopersicum, read-out: Test 1 Measured, component (b) alone 8 ppm) of the same compound?
A: 0%

Q: What about the pest or weed control at 40 ppm (Phytophthora infestans; Phytophthora infestans, in Solanum lycopersicum, read-out: Test 1 Measured, component (b) alone 40 ppm) of the same compound?
A: 35%

Q: What about the pest or weed control at 200 ppm (Phytophthora infestans; Phytophthora infestans, in Solanum lycopersicum, read-out: Test 1 Measured, component (b) alone 200 ppm) of the same compound?
A: 53.3%

Q: Cc1cc(C(F)(F)F)nn1CC(=O)N1CCC(c2nc(C3OCc4c(F)ccc(OS(C)(=O)=O)c4CO3)cs2)CC1 (stereo not drawn) [Compound 1-8, 4-[4-(6-fluoro-9-methylsulfonyloxy-1,5-dihydro-3H-2,4-benzodioxepin-3-yl)-2-thiazolyl]-1-[2-[5-methyl-3-(trifluoromethyl)-1H-pyrazol-1-yl]acetyl]piperidine] was tested. Which “Test 2 Measured preventive value” ([1]; Compound alone, 0.012 ppm) did it give?
A: 10 and 12.5 and 15

Q: What about the “Test 2 Measured preventive value” ([1]; Compound alone, 0.06 ppm) of the same compound?
A: 95.5 and 96.5 and 97.5

Q: What about the “Test 2 Measured preventive value” ([1]; Compound alone, 0.3 ppm) of the same compound?
A: 100

Q: What about the pest or weed control at 0.06 ppm ([1]; Pseudoperonospora cubensis, Compound alone 0.06 ppm, read-out: Test 2 Measured) of the same compound?
A: 98.8%

Q: What about the pest or weed control at 0.3 ppm ([1]; Pseudoperonospora cubensis, Compound alone 0.3 ppm, read-out: Test 2 Measured) of the same compound?
A: 100%

Q: And the pest or weed control at 0.06 ppm ([1]; Pseudoperonospora cubensis, applied alone, 0.06 ppm, read-out: Test 2 preventive value, Measured)?
A: 98%

Q: What about the pest or weed control at 0.3 ppm ([1]; Pseudoperonospora cubensis, applied alone, 0.3 ppm, read-out: Test 2 preventive value, Measured) of the same compound?
A: 100%

Q: What about the “Test 2 preventive value, Measured” value ([1]; applied alone, 0.06 ppm) of the same compound?
A: 98

Q: What about the “Test 1 Measured preventive value” (Phytophthora infestans; Compound alone, 0.3 ppm) of the same compound?
A: 100

Q: What about the pest or weed control at 0.012 ppm (Phytophthora infestans; Phytophthora infestans, in Solanum lycopersicum, read-out: Test 1 Measured preventive value, Compound alone, 0.012 ppm) of the same compound?
A: 30%

Q: And the pest or weed control at 0.06 ppm (Phytophthora infestans; Phytophthora infestans, in Solanum lycopersicum, read-out: Test 1 Measured preventive value, Compound alone, 0.06 ppm)?
A: 98%

Q: What about the pest or weed control at 0.3 ppm (Phytophthora infestans; Phytophthora infestans, in Solanum lycopersicum, read-out: Test 1 Measured preventive value, Compound alone, 0.3 ppm) of the same compound?
A: 100%

Q: And the pest or weed control at 0.06 ppm (Phytophthora infestans; Phytophthora infestans, in Solanum lycopersicum, read-out: Test 1 Measured, Compound alone 0.06 ppm)?
A: 96.2%

Q: What about the pest or weed control at 0.3 ppm (Phytophthora infestans; Phytophthora infestans, in Solanum lycopersicum, read-out: Test 1 Measured, Compound alone 0.3 ppm) of the same compound?
A: 100%

Q: What about the pest or weed control at 0.012 ppm (Phytophthora infestans; Phytophthora infestans, in Solanum lycopersicum, read-out: Test 1 preventive value, Measured, applied alone, 0.012 ppm) of the same compound?
A: 43.3%

Q: What about the pest or weed control at 0.06 ppm (Phytophthora infestans; Phytophthora infestans, in Solanum lycopersicum, read-out: Test 1 preventive value, Measured, applied alone, 0.06 ppm) of the same compound?
A: 97.7%

Q: What about the pest or weed control at 0.3 ppm (Phytophthora infestans; Phytophthora infestans, in Solanum lycopersicum, read-out: Test 1 preventive value, Measured, applied alone, 0.3 ppm) of the same compound?
A: 100%
